Structures can show the parent of a compound that is named as a salt.
Experiments:
[1] = tested on: Methacholine-induced airway reactivity; test: Mouse model of asthma: methacholine-induced airway reactivity (Penh) in ovalbumin-sensitized and challenged mice; format: in vivo; conditions: % inhibition of the PenH vs McH dose AUC compared with vehicle control; for inhibition in vivo at 50 mg/kg: Mus musculus, po, 768 h, 50 mg/kg p.o., dosed days 26-32, measured day 32, ovalbumin-sensitized male Balb/CJ mice, read-out: Reduction of Penh AUC at 50 mg/kg p.o.
Protocol: Male 5-6 week old Balb/CJ mice were obtained from Jackson Laboratories (Bar Harbor, Me.). All experimental animals were used in accordance to Institutional Animal Care and Use Committee of AtheroGenics, Inc. Mice were sensitized by administering an intraperitoneal injection of 20 μg of ovalbumin (Calbiochem, La Jolla, Calif.) adsorbed in 2 mg of alum (Imject Alum; Pierce, Rockford, Ill.) on day 0 and 14. A group of mice received saline and served as negative control animals. The mice were challenged by aerosol exposure to ovalbumin (1% [wt/vol]) for 25 minutes on 3 consecutive days (days 28, 29, and 30) in a plexiglass exposure chamber coupled to an Aeroneb nebulizer (Buxco Electronics, Wilmington, N.C.). Experimental compounds were dissolved in Glycofurol/PEG 300/Tween (35%/55%/10%) (Sigma-Aldrich; Milwaukee, Wis.). Animals were dosed orally with either test compound or vehicle (6 ml/kg dosing volume) on days 26-32 of study. Compound or vehicle was administered 2 hour before the aerosol challenge on days 28, 29, and 30 and 1 hour before airway reactivity measurement on day 32.
Methacholine-induced airway reactivity was assessed on day 32. Methacholine was administered in increasing concentrations ([…], 1.5, 3, 6, 12, 25, and 50 mg/ml) to unrestrained mice. Increases in airway resistance to Methacholine were determined as enhanced pause, (Penh) values, during and after the exposure (6-minute total analysis time). Mice were then humanely euthanized with an overdose of ketamine/xylazine and plasma samples collected for determination of drug levels. The data is presented as the % inhibition of the PenH vs McH dose AUC compared with the vehicle control.
Data analysis was conducting using the software package, JMP (SAS Institute Inc; Cary, N.C.). The Dunnett's multiple comparison test was used to compare treatment group means to the vehicle control group. P values of less than 0.05 were considered statistically significant. The data (Table 1) is presented as the % inhibition of the PenH vs McH dose AUC compared with the vehicle control.

| SMILES | inhibition in vivo at 50 mg/kg [1] [%] | melting point [°C] | Reduction of Penh AUC at 50 mg/kg p.o. ([1]; dosed days 26-32, measured day 32, ovalbumin-sensitized male Balb/CJ mice, 50 mg/kg) |
| --- | --- | --- | --- |
| CC(C)(C)c1cc(SC2CCN(S(=O)(=O)c3ncc(C(C)(C)O)[nH]3)CC2)cc(C(C)(C)C)c1O [Example 12, 2,6-Di-tert-butyl-4-{1-[5-(1-hydroxy-1-methyl-ethyl)-1H-imidazole-2-sulfonyl]-piperidin-4-ylsulfanyl}-phenol] | < 20 | – | – |
| Cn1c(C(=O)O)ccc1S(=O)(=O)N1CCC(CCO)(Sc2cc(C(C)(C)C)c(O)c(C(C)(C)C)c2)CC1 [Example 1, 5-[4-(3,5-Di-tert-butyl-4-hydroxy-phenylsulfanyl)-4-(2-hydroxy-ethyl)-piperidine-1-sulfonyl]-1-methyl-1H-pyrrole-2-carboxylic acid] | < 20 | – | – |
| Cn1c(C(=O)O)ccc1S(=O)(=O)N1CCC([S+]([O-])c2cc(C(C)(C)C)c(O)c(C(C)(C)C)c2)CC1 (stereo not shown) [Example 7, 5-[4-(3,5-Di-tert-butyl-4-hydroxy-benzenesulfinyl)-piperidine-1-sulfonyl]-1-methyl-1H-pyrrole-2-carboxylic acid] | 20 to 40 | – | – |
| Cn1c(C(=O)O)ccc1S(=O)(=O)N1CC[C@H](Sc2cc(C(C)(C)C)c(O)c(C(C)(C)C)c2)C1 [Example 14, (S)-5-[3-(3,5-Di-tert-butyl-4-hydroxy-phenylsulfanyl)-pyrrolidine-1-sulfonyl]-1-methyl-1H-pyrrole-2-carboxylic acid] | < 20 | – | – |
| Cn1c(C(=O)O)ccc1S(=O)(=O)N1CC[C@@H](Sc2cc(C(C)(C)C)c(O)c(C(C)(C)C)c2)C1 [Example 13, (R)-5-[3-(3,5-Di-tert-butyl-4-hydroxy-phenylsulfanyl)-pyrrolidine-1-sulfonyl]-1-methyl-1H-pyrrole-2-carboxylic acid] | < 20 | – | – |
| Cc1[nH]c(C(=O)O)c(C)c1S(=O)(=O)N1CCC(Sc2cc(C(C)(C)C)c(O)c(C(C)(C)C)c2)CC1 [Example 3, 4-[4-(3,5-Di-tert-butyl-4-hydroxy-phenylsulfanyl)-piperidine-1-sulfonyl]-3,5-dimethyl-1H-pyrrole-2-carboxylic acid] | 20 to 40 | – | – |
| CC(C)(C)c1cc(SC2CCN(S(=O)(=O)c3ncc(C(=O)O)[nH]3)CC2)cc(C(C)(C)C)c1O [Example 8, 2-[4-(3,5-Di-tert-butyl-4-hydroxy-phenylsulfanyl)-piperidine-1-sulfonyl]-3H-imidazole-4-carboxylic acid] | 20 to 40 | – | – |
| Cn1c(C(=O)O)ccc1S(=O)(=O)N1CCC(Sc2cc(C(C)(C)C)c(O)c(C(C)(C)C)c2)CC1 [Example 16, 5-[4-(3,5-Di-tert-butyl-4-hydroxy-phenylsulfanyl)-piperidine-1-sulfonyl]-1-methyl-1H-pyrrole-2-carboxylic acid L-arginine salt] | < 20 | – | – |
| Cn1c(C(=O)O)ccc1S(=O)(=O)N1CCC(Sc2cc(C(C)(C)C)c(OCCCO)c(C(C)(C)C)c2)CC1 [Example 6, 5-{4-[3,5-Di-tert-butyl-4-(3-hydroxy-propoxy)-phenylsulfanyl]-piperidine-1-sulfonyl}-1-methyl-1H-pyrrole-2-carboxylic acid] | < 20 | – | – |
| CC(C)(C)c1cc(SC2CCN(S(=O)(=O)c3ncc(CO)[nH]3)CC2)cc(C(C)(C)C)c1O [Example 9, 2,6-Di-tert-butyl-4-[1-(5-hydroxymethyl-1H-imidazole-2-sulfonyl)-piperidin-4-ylsulfanyl]-phenol] | 20 to 40 | 122 to 123 | – |
| Cn1c(CO)ccc1S(=O)(=O)N1CC[C@H](Sc2cc(C(C)(C)C)c(O)c(C(C)(C)C)c2)C1 [Example 15, (S)-2,6-Di-tert-butyl-4-[1-(5-hydroxymethyl-1-methyl-1H-pyrrole-2-sulfonyl)-pyrrolidin-3-ylsulfanyl]-phenol] | < 20 | 68 to 70 | – |
| Cn1c(CO)ccc1S(=O)(=O)N1CCC(CCO)(Sc2cc(C(C)(C)C)c(O)c(C(C)(C)C)c2)CC1 [Example 2, 2,6-Di-tert-butyl-4-[4-(2-hydroxy-ethyl)-1-(5-hydroxymethyl-1-methyl-1H-pyrrole-2-sulfonyl)-piperidin-4-ylsulfanyl]-phenol] | > 40 | 126 to 127 | – |
| Cn1c(CO)ccc1S(=O)(=O)N1CCC(Sc2cc(C(C)(C)C)c(O)c(C(C)(C)C)c2)CC1 [Example 5, 2,6-Di-tert-butyl-4-[1-(5-hydroxymethyl-1-methyl-1H-pyrrole-2-sulfonyl)-piperidin-4-ylsulfanyl]-phenol] | > 40 | 64 to 65 | – |
| Cn1c(C(=O)O)ccc1S(=O)(=O)N1CCC(Sc2cc(C(C)(C)C)c(O)c(C(C)(C)C)c2)CC1 [Example 18, 5-[4-(3,5-Di-tert-butyl-4-hydroxy-phenylsulfanyl)-piperidine-1-sulfonyl]-1-methyl-1H-pyrrole-2-carboxylic acid tris(hydroxymethyl)aminomethane (THAM) Salt] | – | – | 1 (>40% and statistically significant) |
| Cn1c(C(=O)O)ccc1S(=O)(=O)N1CCC(Sc2cc(C(C)(C)C)c(O)c(C(C)(C)C)c2)CC1 [Example 4, 5-[4-(3,5-Di-tert-butyl-4-hydroxy-phenylsulfanyl)-piperidine-1-sulfonyl]-1-methyl-1H-pyrrole-2-carboxylic acid] | > 40 | – | – |

Reference: US7897776B2, “Sulfonamide containing compounds for treatment of inflammatory disorders” (Salutria Pharmaceuticals LLC, priority 2007, dated 2011)
